Test results reported in patent publication US20020137929A1, “1 - (3-heterocyclylphenyl) isothiourea, -isourea, -guanidine and -amidine herbicidal agents” (Intellectual Property Department, BASF Aktiengesellschaft, priority 1998, published 2002).

How the values were obtained:
[1] = test system: ABUTH (Velvetleaf); assay: Postemergence herbicidal evaluation; format: in vivo, Abutilon theophrasti
In short: (§1)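 ~2-wk seedlings; postemergence spray, 40 psi; vehicle 1:1 acetone:water + 0.5% Tween 20; rate ≈0.0156–0.500 kg/ha; greenhouse hold; scored 4–5 wk after treatment, 0–9 scale vs control; repeat tests averaged.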

[2] = test system: IPOHE (Morningglory, Ivyleaf); assay: Postemergence herbicidal evaluation; format: in vivo, Ipomoea hederacea
In short: as §1

[3] = test system: AMBEL (Ragweed, Common); assay: Postemergence herbicidal evaluation; format: in vivo, Ambrosia artemisifolia
In short: as §1

[4] = test system: SETVI (Foxtail, Green); assay: Postemergence herbicidal evaluation; format: in vivo, Setaria viridis
In short: as §1

[5] = test system: GLXMAW (Soybean, Williams); assay: Postemergence herbicidal evaluation; format: in vivo, Glycine max, (L.) Merr. cv Williams
In short: as §1

[6] = test system: ECHORC (Watergrass (Calif.)); assay: Postemergence weed control under flooded paddy conditions; format: in vivo, Echinochloa oryzoides; details: postemergence weeds, 3-4 weeks after treatment
In short: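 Containers holding 3–5 cm weeds and rice at 1.5–2.5 leaves are flooded to 1.5–3 cm above soil. Compound in 50/50 v/v aqueous/acetone is then added directly to the water, about 0.0313–0.500 kg/ha. Plants are kept in the greenhouse and rated 0–9 visually at 3–4 weeks.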

[7] = test system: ECHCG (Barnyardgrass); assay: Postemergence herbicidal evaluation; format: in vivo, Echinochloa crus-galli
In short: as §1

[8] = test system: ECHCG (Barnyardgrass); assay: Preemergence herbicidal evaluation; format: in vivo, Echinochloa crus-galli; details: rated 4-5 weeks after treatment
In short: (§2)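 In this greenhouse assay, monocot and dicot seeds are planted in soil and treated prior to emergence with an aqueous acetone spray (about 0.0156-0.500 kg/ha). Plants are assessed visually against control on a 0-9 scale after 4-5 weeks.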

[9] = test system: CHEAL (Lambsquarters, Common); assay: Preemergence herbicidal evaluation; format: in vivo, Chenopodium album; details: rated 4-5 weeks after treatment
In short: as §2

[10] = test system: CASOB (Sicklepod); assay: Preemergence herbicidal evaluation; format: in vivo, Cassia obtusifolia; details: rated 4-5 weeks after treatment
In short: as §2

[11] = test system: IPOHE (Morningglory, Ivyleaf); assay: Preemergence herbicidal evaluation; format: in vivo, Ipomoea hederacea; details: rated 4-5 weeks after treatment
In short: as §2

[12] = test system: TRZAWR (Wheat, Winter, cv Riband); assay: Postemergence herbicidal evaluation; format: in vivo, Triticum aestivum
In short: as §1

[13] = test system: GALAP (Galium); assay: Preemergence herbicidal evaluation; format: in vivo, Galium aparine; details: rated 4-5 weeks after treatment
In short: as §2

[14] = test system: ZEAMX (Corn, Field); assay: Preemergence herbicidal evaluation; format: in vivo, Zea mays; details: rated 4-5 weeks after treatment
In short: as §2

CCOC(=O)CN1C(=O)CSC1=Nc1cc(N2C(=O)C3=C(CCCC3)C2=O)c(F)cc1Cl [Compound 47, Ethyl 2-{[2-chloro-5-(1-cyclohexene-1,2-dicarboximido)-4-fluorophenyl]imino}-4-oxo-3-thiazolidineacetate]
Postemergence herbicidal rating ABUTH ([1]; Rate 0.0156 kg/ha): 9.0 | Postemergence herbicidal rating ABUTH ([1]; Rate 0.0313 kg/ha): 9.0 | Postemergence herbicidal rating ABUTH ([1]; Rate 0.0625 kg/ha): 9.0 | Postemergence herbicidal rating IPOHE ([2]; Rate 0.0156 kg/ha): 9.0 | Postemergence herbicidal rating IPOHE ([2]; Rate 0.0313 kg/ha): 9.0 | Postemergence herbicidal rating IPOHE ([2]; Rate 0.0625 kg/ha): 9.0 | Postemergence herbicidal rating AMBEL ([3]; Rate 0.0156 kg/ha): 3.0 | Postemergence herbicidal rating AMBEL ([3]; Rate 0.0313 kg/ha): 9.0 | Postemergence herbicidal rating AMBEL ([3]; Rate 0.0625 kg/ha): 9.0 | Postemergence herbicidal rating SETVI ([4]; Rate 0.0156 kg/ha): 0.0 | Postemergence herbicidal rating SETVI ([4]; Rate 0.0313 kg/ha): 0.0 | Postemergence herbicidal rating SETVI ([4]; Rate 0.0625 kg/ha): 0.0 | Postemergence herbicidal rating GLXMAW ([5]; Rate 0.0156 kg/ha): 5.5 | Postemergence herbicidal rating GLXMAW ([5]; Rate 0.0313 kg/ha): 7.0 | Postemergence herbicidal rating GLXMAW ([5]; Rate 0.0625 kg/ha): 7.5 | Herbicidal rating ECHORC ([6]; rate 0.0313 kg/ha): 0.0 | Herbicidal rating ECHORC ([6]; rate 0.0625 kg/ha): 2.0 | Herbicidal rating ECHORC ([6]; rate 0.1250 kg/ha): 4.0 | Herbicidal rating ECHORC ([6]; rate 0.2500 kg/ha): 7.0 | Postemergence herbicidal rating ECHCG ([7]; Rate 0.0156 kg/ha): 0.0 | Postemergence herbicidal rating ECHCG ([7]; Rate 0.0313 kg/ha): 0.0 | Postemergence herbicidal rating ECHCG ([7]; Rate 0.0625 kg/ha): 0.0 | Preemergence herbicidal rating ECHCG ([8]; rate 0.0156 kg/ha): 0.0 | Preemergence herbicidal rating ECHCG ([8]; rate 0.0313 kg/ha): 0.0 | Preemergence herbicidal rating ECHCG ([8]; rate 0.0625 kg/ha): 0.0 | Preemergence herbicidal rating ECHCG ([8]; rate 0.1250 kg/ha): 0.0 | Preemergence herbicidal rating ECHCG ([8]; rate 0.2500 kg/ha): 0.0 | Preemergence herbicidal rating CHEAL ([9]; rate 0.0156 kg/ha): 9.0 | Preemergence herbicidal rating CHEAL ([9]; rate 0.0313 kg/ha): 9.0 | Preemergence herbicidal rating CHEAL ([9]; rate 0.0625 kg/ha): 9.0 | Preemergence herbicidal rating CHEAL ([9]; rate 0.1250 kg/ha): 9.0 | Preemergence herbicidal rating CHEAL ([9]; rate 0.2500 kg/ha): 9.0 | Preemergence herbicidal rating CASOB ([10]; rate 0.0156 kg/ha): 0.0 | Preemergence herbicidal rating CASOB ([10]; rate 0.0313 kg/ha): 0.0 | Preemergence herbicidal rating CASOB ([10]; rate 0.0625 kg/ha): 0.0 | Preemergence herbicidal rating CASOB ([10]; rate 0.1250 kg/ha): 0.0 | Preemergence herbicidal rating CASOB ([10]; rate 0.2500 kg/ha): 0.0 | Preemergence herbicidal rating IPOHE ([11]; rate 0.0156 kg/ha): 0.0 | Preemergence herbicidal rating IPOHE ([11]; rate 0.0313 kg/ha): 0.0 | Preemergence herbicidal rating IPOHE ([11]; rate 0.0625 kg/ha): 0.0 | Preemergence herbicidal rating IPOHE ([11]; rate 0.1250 kg/ha): 0.0 | Preemergence herbicidal rating IPOHE ([11]; rate 0.2500 kg/ha): 9.0 | Postemergence herbicidal rating TRZAWR ([12]; Rate 0.0156 kg/ha): 2.5 | Postemergence herbicidal rating TRZAWR ([12]; Rate 0.0313 kg/ha): 3.5 | Postemergence herbicidal rating TRZAWR ([12]; Rate 0.0625 kg/ha): 4.5 | Preemergence herbicidal rating GALAP ([13]; rate 0.0156 kg/ha): 0.0 | Preemergence herbicidal rating GALAP ([13]; rate 0.0313 kg/ha): 0.0 | Preemergence herbicidal rating GALAP ([13]; rate 0.0625 kg/ha): 0.0 | Preemergence herbicidal rating GALAP ([13]; rate 0.1250 kg/ha): 0.0 | Preemergence herbicidal rating GALAP ([13]; rate 0.2500 kg/ha): 9.0 | Preemergence herbicidal rating ZEAMX ([14]; rate 0.0156 kg/ha): 0.0 | Preemergence herbicidal rating ZEAMX ([14]; rate 0.0313 kg/ha): 0.0 | Preemergence herbicidal rating ZEAMX ([14]; rate 0.0625 kg/ha): 0.0 | Preemergence herbicidal rating ZEAMX ([14]; rate 0.1250 kg/ha): 0.0 | Preemergence herbicidal rating ZEAMX ([14]; rate 0.2500 kg/ha): 2.0
